Source: PMC5278707, “Structure-Activity Relationships of a Series of Echinocandins and the Discovery of CD101, a Highly Stable and Soluble Echinocandin with Distinctive Pharmacokinetic Properties” (Antimicrobial Agents and Chemotherapy, 2017)
In brackets after ≈: the same amount, converted by molar mass. Like-named read-outs stand apart in the source and are kept apart here.

Columns and labels:
[1] = test system: Aspergillus clavatus ATCC 10058; test: CLSI broth microdilution (M38-A2) MEC/MIC; format: cell-based; settings: read at 68 h
Experimental: All yeast and mold isolates were obtained from the American Type Culture Collection (ATCC). Isolates were plated on an agar medium to verify purity, and single colonies were picked. Aspergillus isolates were resubcultured on potato dextrose slants and incubated for 7 days at 35°C. Candida isolates were streaked on SDA plates and incubated for 24 h at 35°C. RPMI 1640 medium (HyClone Laboratories, Logan, UT) and the inoculum for each organism were prepared according to Clinical and Laboratory Standards Institute (CLSI) guidelines ([27][–][29]). Stock solutions for all test articles were prepared in 100% dimethyl sulfoxide (DMSO). Susceptibility testing was performed using CLSI broth microdilution methods for Candida (M27-A3) and Aspergillus (M38-A2). Amphotericin B was tested at a range of 0.06 to 64 μg/ml; all other antifungal agents were tested at 0.015 to 16 μg/ml. […] MIC values are reported as the lowest drug concentration to yield a 50% reduction in the growth of Candida species tested compared to the control well. Minimum effective concentration (MEC) values are reported as the lowest drug concentration to yield the stunted hyphal growth of Aspergillus species tested compared to that of the control well.

[2] = test system: Aspergillus fumigatus ATCC 204305; test: CLSI broth microdilution (M38-A2) MEC/MIC; format: cell-based
Experimental: (§1) All yeast and mold isolates were obtained from the American Type Culture Collection (ATCC). Isolates were plated on an agar medium to verify purity, and single colonies were picked. Aspergillus isolates were resubcultured on potato dextrose slants and incubated for 7 days at 35°C. Candida isolates were streaked on SDA plates and incubated for 24 h at 35°C. RPMI 1640 medium (HyClone Laboratories, Logan, UT) and the inoculum for each organism were prepared according to Clinical and Laboratory Standards Institute (CLSI) guidelines ([27][–][29]). Stock solutions for all test articles were prepared in 100% dimethyl sulfoxide (DMSO). Susceptibility testing was performed using CLSI broth microdilution methods for Candida (M27-A3) and Aspergillus (M38-A2). Amphotericin B was tested at a range of 0.06 to 64 μg/ml; all other antifungal agents were tested at 0.015 to 16 μg/ml. Plates were incubated at 35°C and were read from the bottom using a plate viewer after 24 and 48 h for Candida and after 48 h for Aspergillus. MIC values are reported as the lowest drug concentration to yield a 50% reduction in the growth of Candida species tested compared to the control well. Minimum effective concentration (MEC) values are reported as the lowest drug concentration to yield the stunted hyphal growth of Aspergillus species tested compared to that of the control well.

[3] = test system: Aspergillus fumigatus ATCC MYA-3626; test: CLSI broth microdilution (M38-A2) MEC/MIC; format: cell-based; settings: 48 h
Experimental: as §1

[4] = test system: Aspergillus flavus ATCC 22546; test: CLSI broth microdilution (M38-A2) MEC/MIC; format: cell-based
Experimental: as §1

[5] = test system: Aspergillus niger ATCC 16888; test: CLSI broth microdilution (M38-A2) MEC/MIC; format: cell-based
Experimental: as §1

[6] = test system: Aspergillus ochraceus ATCC 96919; test: CLSI broth microdilution (M38-A2) MEC/MIC; format: cell-based
Experimental: as §1

[7] = test system: Aspergillus candidus ATCC 13686; test: CLSI broth microdilution (M38-A2) MEC/MIC; format: cell-based
Experimental: as §1

[8] = test system: Candida parapsilosis ATCC 22019; test: CLSI broth microdilution (M27-A3) MIC; format: cell-based; settings: Lodderomyces parapsilosis, ATCC22019, 50% reduction in growth
Experimental: as §1

[9] = test system: Candida tropicalis ATCC 90874; test: CLSI broth microdilution (M27-A3) MIC; format: cell-based; settings: 50% reduction in growth
Experimental: as §1

[10] = test system: Candida albicans ATCC 90028; test: CLSI broth microdilution (M27-A3) MIC; format: cell-based; settings: 50% reduction in growth
Experimental: as §1

[11] = test system: Candida lusitaniae ATCC 34134; test: CLSI broth microdilution (M27-A3) MIC; format: cell-based; settings: Clavispora lusitaniae, ATCC34134, 50% reduction in growth, read-out: MIC
Experimental: as §1

[12] = test system: Candida krusei ATCC 14243; test: CLSI broth microdilution (M27-A3) MIC; format: cell-based; settings: Pichia kudriavzevii, ATCC14243, 50% reduction in growth
Experimental: as §1

[13] = test system: Candida glabrata ATCC 90030; test: CLSI broth microdilution (M27-A3) MIC; format: cell-based; settings: Nakaseomyces glabratus
Experimental: as §1

[14] = test system: Candida guilliermondii ATCC 34134; test: CLSI broth microdilution (M27-A3) MIC; format: cell-based; settings: Meyerozyma guilliermondii, ATCC34134, 50% reduction in growth
Experimental: as §1

Aspergillus spp. = test: CLSI broth microdilution (M38-A2) MEC, whole panel; format: cell-based; settings: 48 h, summary of Table 3
Experimental: as §1

[15] = single-dose pharmacokinetics in beagle dogs; settings: male, beagle, dog, in vivo, iv, 1.4 mg/kg
Experimental: Four male, nonnaive beagle dogs received a single i.v. infusion (1.4 mg/kg) of test article over 10 min via a catheter placed in the cephalic vein. Blood draws (1.0 ml) were taken at 0.083, 0.33, 0.75, 1.5, 4.5, 12, 24, and 48 h. An additional blood draw at 72 h was obtained for CD101. Blood draws were taken from the jugular vein and were collected into K3 EDTA tubes. Following blood collection, the samples were immediately inverted several times and were held on wet ice pending centrifugation. The samples were centrifuged within ∼30 min of collection under refrigeration (∼5°C for ∼10 min at ∼2,000 g) to obtain plasma. The plasma samples were frozen immediately on dry ice after separation and were stored at approximately −70°C until analysis. Levels of test article in the plasma samples were measured by quantitative liquid chromatography-tandem mass spectrometry (LC-MS/MS) analysis compared to a calibration curve and an internal standard. Pharmacokinetic parameters were calculated from the plasma concentration-time data using standard noncompartmental methods and utilizing WinNonlin analysis software.

Candida albicans R303 = test: mouse model of disseminated candidiasis, fungal burden in kidneys; format: in vivo; settings: kidneys at 24 h; for fungal burden relative to limit of detection: neutropenic CD-1 mice, 0.5, 1.5 or 4.5 mg/kg; for reductions in fungal burden vs infected control (statistical significance): neutropenic CD-1 mice, 0.5, 1.5 or 4.5 mg/kg 2 h after inoculation
Experimental: Candida albicans R303 was grown on Sabouraud dextrose agar (SDA) plates for 24 h at 35°C. Colonies were transferred to phosphate-buffered saline (PBS) and diluted to 3.8 × 10^5 CFU/ml. Female CD-1 mice (Charles River Laboratories, Portage, MI) were rendered neutropenic via injection with cyclophosphamide (150 mg/kg) 5 days and 2 days prior to inoculation. Each animal was infected by injecting 0.1 ml of inoculum into the tail vein. In the treatment groups, animals received 0.5, 1.5, or 4.5 mg/kg of test article 2 h after inoculation. Two groups of untreated, infected controls were used to evaluate fungal burden: at 2 h when test articles were administered in the treatment groups and at 24 h when the treatment groups were sacrificed. Kidneys were harvested at 2 h in one untreated control group and at 24 h in all other groups. The kidneys were homogenized in 2 ml of sterile phosphate-buffered saline, and 0.1-ml aliquots were spread on SDA plates and incubated at 35°C overnight. Fungal burden was determined based on the log10 C. albicans CFU counts from paired kidneys. Data were analyzed using a one-way analysis of variance (ANOVA) and the Dunnett multiple comparisons test comparing the test articles to the infected control group (GraphPad InStat version 3.1; GraphPad Software, San Diego, CA).

Row | SMILES | MIC ([8]; 24 h) | MIC ([8]; 48 h) | MIC ([9]; ATCC90874, 24 h) | MIC ([9]; ATCC90874, 48 h) | MIC ([10]; ATCC90028, 24 h) | MIC ([10]; ATCC90028, 48 h) | MIC ([11]; 24 h) | MIC ([11]; 48 h) | MIC ([12]; 24 h) | MIC ([12]; 48 h) | MIC ([14]; 24 h) | MIC ([14]; 48 h) | Vd [15] | half-life [15] | fungal burden relative to limit of detection (Candida albicans R303) | reductions in fungal burden vs infected control (statistical significance) (Candida albicans R303) | also measured
1 | C[C@@H]1[C@H](O)[C@@H](C)/C=C/C=C/C=C/C=C/C=C/C=C/C=C/[C@H](O[C@@H]2O[C@H](C)[C@@H](O)[C@H](N)[C@@H]2O)C[C@@H]2O[C@](O)(C[C@@H](O)C[C@@H](O)[C@H](O)CC[C@@H](O)C[C@@H](O)CC(=O)O[C@H]1C)C[C@H](O)[C@H]2C(=O)O [Amphotericin B, amphotericin B] | 0.25 µg/mL (≈ 0.271 µM) | 0.5 µg/mL (≈ 0.541 µM) | 0.25 µg/mL (≈ 0.271 µM) | 0.25 µg/mL (≈ 0.271 µM) | ≤ 0.06 µg/mL | 0.125 µg/mL (≈ 0.135 µM) | ≤ 0.06 µg/mL | ≤ 0.06 µg/mL | 0.25 µg/mL (≈ 0.271 µM) | 0.5 µg/mL (≈ 0.541 µM) | ≤ 0.06 µg/mL | ≤ 0.06 µg/mL | – | – | – | – | MIC ([1]; Aspergillus clavatus, ATCC10058): ≤ 0.06 µg/mL; MIC ([2]; Aspergillus fumigatus, ATCC204305, 48 h): 1 µg/mL (≈ 1.08 µM); MIC ([3]; Aspergillus fumigatus): 1 µg/mL (≈ 1.08 µM); MIC ([4]; Aspergillus flavus, ATCC22546, 48 h): 1 µg/mL (≈ 1.08 µM); MIC ([5]; Aspergillus niger, ATCC16888, 48 h): 0.125 µg/mL (≈ 0.135 µM); MIC ([6]; Aspergillus ochraceus, ATCC96919, 48 h): 2 µg/mL (≈ 2.16 µM); MIC ([7]; Aspergillus candidus, ATCC13686, 48 h): ≤ 0.06 µg/mL; MIC ([13]; ATCC90030, 24 h, 50% reduction in growth, read-out: MIC): 0.06 µg/mL (≈ 0.0649 µM); MIC ([13]; ATCC90030, 48 h, 50% reduction in growth, read-out: MIC): 0.25 µg/mL (≈ 0.271 µM)
2 | CC[C@H](C)C[C@H](C)CCCCCCCCC(=O)N[C@H]1C[C@@H](O)[C@@H](NCCN)NC(=O)[C@@H]2[C@@H](O)CCN2C(=O)[C@H]([C@H](O)CCN)NC(=O)[C@H]([C@H](O)[C@@H](O)c2ccc(O)cc2)NC(=O)[C@@H]2C[C@@H](O)CN2C(=O)[C@H]([C@@H](C)O)NC1=O [Caspofungin, caspofungin] | 0.25 µg/mL (≈ 0.229 µM) | 0.5 µg/mL (≈ 0.457 µM) | 0.06 µg/mL (≈ 0.0549 µM) | 0.06 µg/mL (≈ 0.0549 µM) | 0.06 µg/mL (≈ 0.0549 µM) | 0.06 µg/mL (≈ 0.0549 µM) | 0.25 µg/mL (≈ 0.229 µM) | 0.25 µg/mL (≈ 0.229 µM) | 0.25 µg/mL (≈ 0.229 µM) | 0.5 µg/mL (≈ 0.457 µM) | 0.25 µg/mL (≈ 0.229 µM) | > 16 µg/mL | – | – | – | – | MEC ([1]; stunted hyphal growth): 0.125 µg/mL; MEC values against all Aspergillus species tested (Aspergillus spp.): ≤ 0.125 µg/mL; MEC ([2]; 48 h, stunted hyphal growth): 0.125 µg/mL; MEC ([3]; stunted hyphal growth): 0.125 µg/mL; MEC ([4]; 48 h, stunted hyphal growth): 0.06 µg/mL; MEC ([5]; 48 h, stunted hyphal growth): 0.06 µg/mL; MEC ([6]; 48 h, stunted hyphal growth): 0.06 µg/mL; MEC ([7]; 48 h, stunted hyphal growth): ≤0.015 µg/mL; MIC ([13]; ATCC90030, 24 h): 0.125 µg/mL (≈ 0.114 µM); MIC ([13]; ATCC90030, 48 h): 0.125 µg/mL (≈ 0.114 µM)
3 | CCCCCOc1ccc(-c2ccc(-c3ccc(C(=O)N[C@H]4C[C@@H](O)[C@@H](OCCOCCOC)NC(=O)[C@@H]5[C@@H](O)[C@@H](C)CN5C(=O)[C@H]([C@@H](C)O)NC(=O)[C@H]([C@H](O)[C@@H](O)c5ccc(O)cc5)NC(=O)[C@@H]5C[C@@H](O)CN5C(=O)[C@H]([C@@H](C)O)NC4=O)cc3)cc2)cc1 [Compound 2] | – | – | – | – | – | – | – | – | – | – | – | – | 0.331 L/kg | 18.9 h | – | – | –
4 | CCCCCOc1ccc(-c2ccc(-c3ccc(C(=O)N[C@H]4C[C@@H](O)[C@@H](OCCOCCN)NC(=O)[C@@H]5[C@@H](O)[C@@H](C)CN5C(=O)[C@H]([C@@H](C)O)NC(=O)[C@H]([C@H](O)[C@@H](O)c5ccc(O)cc5)NC(=O)[C@@H]5C[C@@H](O)CN5C(=O)[C@H]([C@@H](C)O)NC4=O)cc3)cc2)cc1 [Compound 3] | – | – | – | – | – | – | – | – | – | – | – | – | 0.627 L/kg | 33.7 h | below the limit of detection for at least one of the doses | – | –
5 | CCCCCOc1ccc(-c2ccc(-c3ccc(C(=O)N[C@H]4C[C@@H](O)[C@@H](OCCOCCO)NC(=O)[C@@H]5[C@@H](O)[C@@H](C)CN5C(=O)[C@H]([C@@H](C)O)NC(=O)[C@H]([C@H](O)[C@@H](O)c5ccc(O)cc5)NC(=O)[C@@H]5C[C@@H](O)CN5C(=O)[C@H]([C@@H](C)O)NC4=O)cc3)cc2)cc1 [Compound 4] | – | – | – | – | – | – | – | – | – | – | – | – | 0.361 L/kg | 28.9 h | below the limit of detection for at least one of the doses | statistically significant (P < 0.01) reductions in fungal burden at all doses | –
6 | CCCCCOc1ccc(-c2ccc(-c3ccc(C(=O)N[C@H]4C[C@@H](O)[C@@H](NCCNCCO)NC(=O)[C@@H]5[C@@H](O)[C@@H](C)CN5C(=O)[C@H]([C@@H](C)O)NC(=O)[C@H]([C@H](O)[C@@H](O)c5ccc(O)cc5)NC(=O)[C@@H]5C[C@@H](O)CN5C(=O)[C@H]([C@@H](C)O)NC4=O)cc3)cc2)cc1 [Compound 5] | – | – | – | – | – | – | – | – | – | – | – | – | 0.687 L/kg | 21 h | below the limit of detection for at least one of the doses | statistically significant (P < 0.01) reductions in fungal burden at all doses | –
